# Calls of active or inactive are those of the source.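 Rule for the calls: active = mean IC50 of at most 10 µM; inactive = the rest.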
# System: H9c2 cardiomyocytes, H2O2 injury protection, ATP luminescence, 2 h
# Experiment: protection of H9c2 cells from H2O2 death, SAR follow-up, hydrogen peroxide, ATP luminescence (AID 623867)
row,Compound,IC50
1,COCCn1c(SC(C(=O)Nc2cc(C)ccc2C)c2ccccc2)nc2ccccc2c1=O (stereo not given),> 79 µM (inactive)
2,O=c1[nH]c2ccccc2cc1CN(Cc1ccco1)S(=O)(=O)c1ccc(F)cc1,> 79 µM (inactive)
3,COc1ccc(-c2cc(C(=O)NCc3ccco3)c3ccccc3n2)cc1OC,41 µM
4,COc1ccc(-n2cc(-c3ccccc3)c3c(N4CCCCC4)ncnc32)cc1,> 79 µM (inactive)
5,O=C(C(=O)N1CCCCC1)c1c(-c2ccccc2)[nH]c2ccccc12,> 79 µM (inactive)
6,COc1ccc(N2C(=O)c3ccccc3N3C(=O)c4c(ccc(OC)c4OC)C23)cc1 (stereo not given),23.4 µM (inactive)
7,COc1cccc(CN(C)C(=O)c2cc(-c3ccccc3)nc3ccc(C)cc23)c1OC,> 79 µM (inactive)
8,COc1ccc(-n2cc(-c3ccccc3)c3c(N4CCCC4)ncnc32)cc1,> 79 µM (inactive)
9,COCCNC(=O)C(c1ccc(O)cc1)N(C(=O)c1snc(C(N)=O)c1N)c1ccccc1F (stereo not given),> 79 µM (inactive)
10,COc1ccc2c(=O)c(C(=O)N3CCN(S(=O)(=O)c4c(C)cc(C)cc4C)CC3)c[nH]c2c1,> 79 µM (inactive)
11,CCN(CC)S(=O)(=O)c1cc(C(=O)N2CCN(Cc3cccc4cccnc34)CC2)ccc1C,> 79 µM (inactive)
12,COc1ccc2cc(C(=O)N3CCN(S(=O)(=O)c4cc(C)ccc4C)CC3)c(C)nc2c1,> 79 µM (inactive)
13,O=C1c2ccccc2N2C(=O)c3ccccc3[C@H]2N1c1ccccc1,29.4 µM (inactive)
14,CCCn1c(SC(C(=O)Nc2cccc(OC)c2)c2ccccc2)nc2ccccc2c1=O (stereo not given),> 79 µM (inactive)
15,Cc1ccc2cc(CN(Cc3cccnc3)S(=O)(=O)c3ccc(F)cc3)c(=O)[nH]c2c1,> 79 µM (inactive)
16,COc1cc(-c2cc(C(=O)Nc3cccc(C(C)=O)c3)c3ccccc3n2)cc(OC)c1OC,8.45 µM
17,COc1ccc2c(c1OC)C(=O)N1c3ccccc3C(=O)N(c3cccc(Br)c3)C21 (stereo not given),10.7 µM (inactive)
18,COc1ccccc1N1C(=O)c2ccccc2N2C(=O)c3c(ccc(OC)c3OC)C12 (stereo not given),30.4 µM (inactive)

row,Compound,IC50
1,COc1ccc(-n2cc(-c3ccccc3)c3c(NCc4ccccc4)ncnc32)cc1,> 79 µM (inactive)
2,O=C(C(=O)N1CCCC1)c1c(-c2ccccc2)[nH]c2ccccc12,> 79 µM (inactive)
3,Cc1ccc2cc(CN(C)S(=O)(=O)c3ccc(F)cc3)c(=O)[nH]c2c1,> 79 µM (inactive)
4,COc1cccc(NC(=O)CN(C)C(=O)c2cc(-c3cccs3)nn2-c2ccccc2)c1,> 79 µM (inactive)
5,COc1ccc(-c2cc(C(=O)N(C)Cc3ccc(OC)c(OC)c3OC)c3ccccc3n2)cc1OC,10.1 µM (inactive)
6,CC(C)CCNC(=O)C(c1ccc(O)cc1)N(C(=O)c1snc(C(N)=O)c1N)c1ccccc1F (stereo not given),> 79 µM (inactive)
7,Cc1ccccc1N(C(=O)c1snc(C(N)=O)c1N)C(C(=O)NCc1ccc(F)cc1)c1ccc(O)cc1 (stereo not given),> 79 µM (inactive)
8,COc1cccc(CN(C)C(=O)c2cc(-c3ccc(OC)c(OC)c3)nc3ccccc23)c1,10.7 µM (inactive)
9,COc1ccc(-c2cc(C(=O)NCc3ccccc3)c3ccccc3n2)cc1OC,> 79 µM (inactive)
10,Cc1ccc(-c2[nH]c3ccccc3c2C(=O)C(=O)N(C)C)cc1,> 79 µM (inactive)
11,COc1ccc2c(c1OC)C(=O)N1c3ccccc3C(=O)N(c3ccccc3C)C21 (stereo not given),58.5 µM (inactive)
12,Cc1ccc(C)c(S(=O)(=O)N2CCN(C(=O)c3cc4cc(C)ccc4nc3C)CC2)c1,> 79 µM (inactive)
13,CCN(CC)C(=O)C(=O)c1c(-c2ccccc2)[nH]c2ccccc12,> 79 µM (inactive)
14,Cc1ccc(S(=O)(=O)N(Cc2cccnc2)Cc2cc3ccccc3[nH]c2=O)cc1,> 79 µM (inactive)
15,COc1ccc2c(c1OC)C(=O)N1c3ccccc3C(=O)N(c3ccc(F)cc3)C21 (stereo not given),33.2 µM (inactive)
16,COc1ccc(-c2cc(C(=O)N(C)C)c3ccccc3n2)cc1OC,> 79 µM (inactive)
17,CCCN(CC(=O)Nc1ccccc1OC)C(=O)c1cc(-c2cccs2)nn1-c1ccccc1,> 79 µM (inactive)
